Data from patent publication US10561736B1, “Apoptosis inhibitor formulations for prevention of hearing loss” (Spiral Therapeutics, Inc., priority 2019, dated 2020).
Entries after “also recorded” stand apart in the source; their conditions may differ.

What was measured:
[1] = molecular target: apoptosome complex composed by recombinant Apaf-1, Cytc, deoxyadenosine triphosphate (dATP), and caspase 9 (Homo sapiens, UniProt O14727); test: inhibition of apoptosome complex formation, recombinant proteins; type: biochemical; settings: mean ± SD, read-out: apoptosome inhibition (measured as inhibition of caspase 3 activation)
Description: The specificity of LPT99 was tested in vitro on Apaf-1, caspase 3, and caspase 9 (proteins from the apoptotic cascade), and a broad panel of potential pharmacological targets.
LPT99 inhibited the formation of the apoptosome complex composed by recombinant Apaf-1, Cytc, deoxyadenosine triphosphate (dATP), and caspase 9. This activity was measured as inhibition of caspase 3 activation. […] To evaluate the specificity of the inhibition, an assay of caspase 3 and 9 activation was set up with recombinant proteins. The inhibitions of caspase 3 and 9 were 7.6±14.7 and 5.3±3.5, respectively, for LPT99.

HEI-OC1 cells [2] = test: release of mitochondrial Cytc in HEI-OC1 cells with CisPt (flow cytometry); type: cell-based; settings: cellular model of CisPt-induced apoptosis
Description: Flow cytometry was also used to characterize the effect of LPT99 in the release of mitochondrial Cytc in HEI-OC1 cells in vitro with CisPt prevention.
(§1) The effect of LPT99 on proliferation of non-apoptotic cells was studied. A549 cells were cultured in the presence of LPT99 for up to 6 days; the cell number was monitored by flow cytometry, and doubling time was calculated.

HEI-OC1 cells [3] = test: HEI-OC1 cell viability with CisPt; type: cell-based; settings: cellular model of CisPt-induced apoptosis
Description: To identify off-target activities of LPT99, its selectivity against a panel of receptors (44 G-protein-coupled receptors [GPCR] and 4 non-GPCR), 4 ion channels, and 3 transporters were analyzed. The cell line, HEI-OC1 (house ear institute organ of Corti 1), which expresses several characteristic markers of the organ of Corti sensory cells (Kalinec, et al., Audiol. Neurootol. 2003, 8(4), 177-89), was used to evaluate the efficacy of LPT99 in preventing apoptosis due to […]. Cells were pre-incubated with LPT99, followed by […] for 24 hours.
as §1

[4] = in vitro release assay from P407 hydrogel through dialysis membrane into artificial perilymph; type: physicochemical; settings: 3500 Da dialysis membrane, 37° C.
Description: The in vitro release assay was performed using cellulose dialysis membranes of 3500 Da (OrDial D35-MWCO 3500, Orange Scientific) to simulate the round window membrane, located between the middle ear and the inner ear, as it is the first barrier for the drug to reach the inner ear where it will exert its pharmacological action. (See FIG. 1) Artificial perilymph (NaCl 137 mM, KCl 5 mM, CaCl2 2 mM, MgCl2 1 mM and NaHCO3 1 mM) was used to simulate the environment inside the inner ear, since this is the liquid that interact with the drug after crossing the round window. The assay was performed at 37° C., continuing with the simulation of ear conditions.
To prepare the release assay, ten (10) mL of the LPT99 loaded hydrogel was placed inside a 3500 Da dialysis membrane, the membrane with the hydrogel was introduced into a 100 ml borosilicate glass lab bottle and 30 ml of artificial perilymph was added. All samples were kept under magnetic stirring at 37° C. […]
Samples were taken at different time points (1 h, 3 h, 6 h, 1 day, 2 days, 3 days, 6 days, 7 days, 8 days, 9 days, 10 days, 13 days, 14 days and 15 days) at which time 5 mL were withdrawn with a graduated glass pipette and replaced with equivalent volume of artificial perilymph. The collected samples were analyzed to determine the amount of drug released from the hydrogel at each time point. […]

[5] = system: CisPt-induced hearing loss; test: model of CisPt-induced hearing loss in rats; type: in vivo; settings: rat
Description: A model of CisPt-induced hearing loss in rats was evaluated to test the in vivo efficacy of LPT99. Ototoxicity was induced by intraperitoneal (IP) slow infusion of CisPt at doses that compared with those used in human preventions (eg, 10 mg/kg). LPT99 was administered IT 30 minutes before CisPt was given.
The protective effect of LPT99 was evaluated 3 days after CisPt administration by functional measures, such as auditory brainstem response (ABR) threshold shift, DPOAE, and expression of biomarkers of apoptosis in cochlea and cytocochleograms.

[6] = system: bacterial reverse mutation; test: GLP in vitro bacterial reverse mutation assay (Ames test); type: cell-based
[7] = system: Chinese hamster ovary (CHO) cell; test: in vitro CHO cell aberration assay; type: cell-based; settings: presence or absence of S9 metabolism
guinea pigs [8] = test: dermal sensitization range-finding pilot sub-study; type: in vivo, guinea pig; settings: topical 50 μl, 200, 400, or 797 μM
Description: A GLP-compliant dermal sensitization study was conducted with LPT99 in guinea pigs. The objective was to assess potential dermal sensitization of LPT99 using the Buehler test (Buehler, Arch Dermatol. 1965, 91, 171-7).
The test article, LPT99, was in a neutral-pH, buffered, isotonic solution containing a thermoreversible compound. The vehicle control was buffered at neutral pH and formulated as for the test article; it contained POLOXAMER® 407, disodium phosphate dodecahydrate hydrogen, sodium dihydrogen phosphate dihydrate, sodium chloride, and water for injection.
In the range-finding pilot substudy, 4 guinea pigs (2 males and 2 females; Charles River, Stone Ridge, N.Y.) were dosed.

guinea pigs [9] = test: dermal sensitization main study (Buehler test); type: in vivo, guinea pig; settings: topical 797 μM
Description: A GLP-compliant dermal sensitization study was conducted with LPT99 in guinea pigs.
The test article, LPT99, was in a neutral-pH, buffered, isotonic solution containing a thermoreversible compound.
The main study consisted of 2 groups of 20 or 10 guinea pigs. […] Group 2 was 5 male and 5 female animals that were not dosed with LPT99 (Group 2) during the induction phase and served as naïve controls; Group 2 was challenged with LPT99 on Day 28. LPT99 was topically administered to the skin in the shaved scapula area in a volume of 50 μL on Study Days 0, 7, and 14 (induction doses), and on Day 28 (challenge dose). These observations and measurements were performed: Clinical observations (daily), Body weights (weekly), Draize scoring (24 and 48 hours after bandage removal on Days 29 and 30), Primary Dermal Irritation Index (PDII) scoring of extent of irritation according to the scale in. The PDII (post-challenge) was calculated for the test article or vehicle by dividing the sum of the Total Irritation Score by the number of observations (e.g., 3 days×6 animals=18 (number of observations).

apoptosome complex composed by recombinant Apaf-1, Cytc, deoxyadenosine triphosphate (dATP), and caspase 9, sequence (O14727 whole entry, one chain of several): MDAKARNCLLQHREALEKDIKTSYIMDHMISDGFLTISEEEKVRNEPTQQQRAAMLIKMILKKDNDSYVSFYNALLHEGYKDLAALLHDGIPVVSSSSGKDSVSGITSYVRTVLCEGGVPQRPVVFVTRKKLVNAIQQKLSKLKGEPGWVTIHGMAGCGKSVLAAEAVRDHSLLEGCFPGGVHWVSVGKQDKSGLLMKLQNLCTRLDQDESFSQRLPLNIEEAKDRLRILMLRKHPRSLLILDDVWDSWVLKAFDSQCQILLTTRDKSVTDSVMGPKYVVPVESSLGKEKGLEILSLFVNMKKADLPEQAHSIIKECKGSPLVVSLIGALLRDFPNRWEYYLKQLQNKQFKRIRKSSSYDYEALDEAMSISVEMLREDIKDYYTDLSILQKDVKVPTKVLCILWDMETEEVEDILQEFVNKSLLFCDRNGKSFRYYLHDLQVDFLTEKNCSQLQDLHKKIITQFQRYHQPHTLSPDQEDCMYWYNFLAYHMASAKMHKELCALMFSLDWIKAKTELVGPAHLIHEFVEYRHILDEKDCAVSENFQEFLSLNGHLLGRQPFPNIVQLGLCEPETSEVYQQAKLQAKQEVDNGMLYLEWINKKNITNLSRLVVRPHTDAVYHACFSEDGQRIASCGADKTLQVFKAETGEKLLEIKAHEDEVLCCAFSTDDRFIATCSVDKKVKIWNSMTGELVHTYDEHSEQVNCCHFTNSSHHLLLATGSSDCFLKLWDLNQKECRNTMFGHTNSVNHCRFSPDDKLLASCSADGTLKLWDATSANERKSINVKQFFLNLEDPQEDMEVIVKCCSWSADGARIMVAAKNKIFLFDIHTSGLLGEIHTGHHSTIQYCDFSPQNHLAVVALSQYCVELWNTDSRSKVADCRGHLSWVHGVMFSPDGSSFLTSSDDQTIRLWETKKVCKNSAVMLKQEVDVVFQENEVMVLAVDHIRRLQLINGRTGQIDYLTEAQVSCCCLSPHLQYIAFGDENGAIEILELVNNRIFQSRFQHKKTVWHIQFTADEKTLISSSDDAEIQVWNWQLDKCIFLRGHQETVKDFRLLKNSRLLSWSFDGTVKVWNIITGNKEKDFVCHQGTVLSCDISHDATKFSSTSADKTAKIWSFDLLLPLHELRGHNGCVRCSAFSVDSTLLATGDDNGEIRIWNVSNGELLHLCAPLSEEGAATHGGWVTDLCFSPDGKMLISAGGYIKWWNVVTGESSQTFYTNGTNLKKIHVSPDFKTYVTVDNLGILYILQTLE

COc1ccc2[nH]cc(CCNC(=O)CC3C(=O)N(CCc4ccc(Cl)cc4Cl)CC(=O)N3CCc3cccs3)c2c1 (centres unmarked) [LPT99, 2-(4-(2,4-dichlorophenethyl)-3,6-dioxo-1-(2-(thiophen-2-yl)ethyl)piperazin-2-yl)-N-(2-(5-methoxy-1H-indol-3-yl)ethyl)acetamide]
inhibition at 10 µM [1]: 78.9% | release of Cytc from mitochondria (HEI-OC1 cells [2]): decreased release of Cytc from mitochondria | cell viability with CisPt (HEI-OC1 cells [3]): improved cell viability; also recorded: increased cellular viability | LPT99 release from hydrogel over time [4]: released in effective amounts for at least one week | ABR threshold shift induced by CisPt ([5]; IT LPT99-CD, 3 days after administration, especially 20, 28, or 40 kHz): attenuated the ABR threshold shift | auditory threshold shifts vs CisPt control group ([5]; IT LPT99 in hydrogel plus CisPt): significantly lower auditory threshold shifts | protection against CisPt-induced hearing loss ([5]; IT LPT99 solution (hydrogel), 63 μg/mL [100 μM] and 300 μg/mL [478 μM]): protected against CisPt-induced hearing loss; also recorded: protective effects against CisPt-induced hearing loss | genetic toxicity (Ames test) [6]: no evidence of genetic toxicity | structural aberrations in cultured mammalian cells [7]: did not induce structural aberrations | Draize scores (erythema and edema) (guinea pigs [8]): 0 | Irritant Category (guinea pigs [9]): nonirritant (0) | mortality, clinical observations, body weights, or Draize scores (guinea pigs [9]): No test-article-related changes | Draize scores after the challenge dose (guinea pigs [9]; 24 or 48 hours): No Draize scores were >0 | PDII score (guinea pigs [9]; post-challenge): 0
